Here are results for 2 compounds from US20100173919A1, “PHARMACEUTICAL COMPOSITION USING ALISKIREN AND AVOSENTAN” (priority 2006, published 2010).

Where only a bound is given, the exact number is not on record here.

In the assay the test system is double transgenic rats over-expressing both, the gene for human renin and the gene for human angiotensinogen. In words: Urinary albumin excretion (albuminuria) in double transgenic rat model of malignant hypertension with renal complications. Type of assay: in vivo. From the text: An animal model for spontaneously malignant hypertension with renal complications is represented by double transgenic rats over-expressing both, the gene for human renin and the gene for human angiotensinogen. This double transgenic rat strain is produced by crossbreeding two transgenic strains, one for human angiotensinogen with the endogenous promoter and one for human renin with the endogenous promoter. Neither single transgenic strain is hypertensive. […] The fact that human renin can be studied in the rat is a unique feature of this model and allows the extrapolation to clinical high renin hypertension. […] Each agent can be tested over a wide range of dosages to determine the optimal drug level for each agent in combination to elicit the maximal response. Each study group is best performed in which the effects of the combination treatment group are determined at the same time as the individual components are evaluated. Although drug effects may be observed upon short term treatment, it is preferable to observe responses in a chronic setting as shown below in which experiments were done over a three to seven week observation period. The long-term duration study is of sufficient duration to allow for the full development of compensatory responses to occur and therefore, the observed effect will most likely depict the actual responses of the test system representing sustained or persistent effects. The combination therapy can be compared to that of the respective monotherapies by determining the maximum change in 24 hour urinary protein content at a given day. All values are represented as the group mean±standard error of the mean (SEM). Statistical significance is obtained when p<0.05. The albuminuria values for each of the treatment groups can be compared statistically using a one-way ANOVA followed by the appropriate post-hoc analysis, for example by performing a Bonferoni test. Four week old double transgenic rats were treated daily by oral gavage with SPP100/aliskiren at a dose of 10 mg/kg, SPP301/avosentan at doses of 10 and 30 mg/kg and combinations of SPP100/aliskiren with SPP301/avosentan at the same doses. After three, five and seven weeks of drug treatment, 24 hour urine samples are collected using metabolic cages. The urinary albumin content is measured by ELISA using a commercial kit ([…] GmbH, Luckenwalde, Germany).

Consider `COCCCOc1cc(C[C@@H](C[C@H](N)[C@@H](O)C[C@H](C(=O)NCC(C)(C)C(N)=O)C(C)C)C(C)C)ccc1OC` [SPP100, aliskiren], for which the “Albuminuria: mean ± SEM” value is 469 ± 64 ug/24 h (SPP100 10 mg/kg daily oral gavage, Baseline, 24 h urine, ELISA); 3046 ± 734 ug/24 h (SPP100 10 mg/kg daily oral gavage, treatment week 3); 12356 ± 3194 ug/24 h (SPP100 10 mg/kg daily oral gavage, treatment week 5); 22268 ± 5067 ug/24 h (SPP100 10 mg/kg daily oral gavage, treatment week 7). Besides, for the setting “SPP100/aliskiren 10 mg/kg daily oral, after seven weeks of treatment”, the “mean urinary albumin excretions” value is “up to 22.3 mg”.
Turning to `COc1ccccc1Oc1c(NS(=O)(=O)c2ccc(C)cn2)nc(-c2ccncc2)nc1OC` [SPP301, 5-methyl-pyridine-2-sulfonic acid [6-methoxy-5-(2-methoxy-phenoxy)-2-pyridin-4-yl-pyrimidin-4-yl]-amide], the “Albuminuria: mean ± SEM” value runs as follows: (SPP301 10 mg/kg daily oral gavage, Baseline) 422 ± 128 ug/24 h; (SPP301 10 mg/kg daily oral gavage, treatment week 3) 14213 ± 4658 ug/24 h; (SPP301 10 mg/kg daily oral gavage, treatment week 5) 38936 ± 7988 ug/24 h; (SPP301 10 mg/kg daily oral gavage, treatment week 7) 38980 ± 9642 ug/24 h; (SPP301 30 mg/kg daily oral gavage, Baseline) 413 ± 151 ug/24 h; (SPP301 30 mg/kg daily oral gavage, treatment week 3) 11824 ± 2343 ug/24 h. Further, the “Albuminuria: mean ± SEM” value is, setting by setting: (SPP301 30 mg/kg daily oral gavage, treatment week 5) 43160 ± 10250 ug/24 h; (SPP301 30 mg/kg daily oral gavage, treatment week 7) 37416 ± 16057 ug/24 h. Also, the urinary albumin contents (SPP301/avosentan at 10 or 30 mg/kg daily dosing) is given as at most 39 mg.
